From PubChem BioAssay AID192 (DTP/NCI, 2004)
Inconclusive results and toxic doses are left out. The calls were made as follows: active = survival T/C of 150% or more; inactive = T/C below 125% in these data.

System: BDF1 mice, B16 melanoma ip, median survival T/C
Test: NCI In Vivo Anticancer Drug Screen. Data for tumor model B16 Melanoma (intraperitoneal) in B6D2F1 (BDF1) mice
Settings: endpoint: median survival time, higher = longer survival
Outline: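 Mice with transplantable tumors; drug vs vehicle groups; endpoint survival or tumor size; value = T/C.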

[1] = dose: 200.0 mg/kg/injection, schedule: Q01DX009 (ip), vehicle: Klucel (hydroxypropylcellulose) (HPC)
[2] = dose: 12.5 mg/kg/injection, schedule: Q01DX009 (ip), vehicle: saline with Tween-80
[3] = dose: 25.0 mg/kg/injection, schedule: Q01DX009 (ip), vehicle: saline with Tween-80
[4] = dose: 50.0 mg/kg/injection, schedule: Q01DX009 (ip), vehicle: saline with Tween-80
[5] = dose: 100.0 mg/kg/injection, schedule: Q01DX009 (ip), vehicle: saline with Tween-80
[6] = dose: 200.0 mg/kg/injection, schedule: Q01DX009 (ip), vehicle: saline with Tween-80
[7] = dose: 400.0 mg/kg/injection, schedule: Q01DX009 (ip), vehicle: saline with Tween-80
[8] = dose: 6.25 mg/kg/injection, schedule: Q01DX009 (ip), vehicle: saline with Tween-80

Measured: T/C

COc1ccc(OC)c(/C=C/C(=O)c2ccc(Cl)cc2)c1
inactive: dose: 100.0 mg/kg/injection, schedule: Q01DX009 (ip), vehicle: Klucel (hydroxypropylcellulose) (HPC) 92 % of control | dose: 100.0 mg/kg/injection, schedule: Q04DX003 (ip), vehicle: Klucel (hydroxypropylcellulose) (HPC) 103 % of control | [1] 92 % of control | dose: 200.0 mg/kg/injection, schedule: Q04DX003 (ip), vehicle: Klucel (hydroxypropylcellulose) (HPC) 109 % of control | dose: 400.0 mg/kg/injection, schedule: Q01DX009 (ip), vehicle: Klucel (hydroxypropylcellulose) (HPC) 89 % of control | dose: 400.0 mg/kg/injection, schedule: Q04DX003 (ip), vehicle: Klucel (hydroxypropylcellulose) (HPC) 103 % of control

Cc1ccc(NC(=O)c2ccc(C(=O)Nc3ccc(C)cc3)cc2)cc1
inactive: [2] 117 % of control | [3] 93 % of control | [4] 100 % of control

CC(Br)C(=O)NC(CO)C(=O)O (stereo unspecified)
inactive: [5] 94 % of control | dose: 100.0 mg/kg/injection, schedule: Q04DX003 (ip), vehicle: saline with Tween-80 108 % of control | [6] 99 % of control | dose: 200.0 mg/kg/injection, schedule: Q04DX003 (ip), vehicle: saline with Tween-80 113 % of control | [7] 86 % of control | dose: 400.0 mg/kg/injection, schedule: Q04DX003 (ip), vehicle: saline with Tween-80 108 % of control

C=CCCC(=O)CCCC(=O)O[C@@H]1[C@@H]2[C@H](CC1(C)C)[C@H](O)[C@@]13O[C@@H]1[C@H](O)[C@@]1(CO1)[C@@]23C
inactive: dose: 6.2 micrograms/kg/injection, schedule: Q01DX009 (ip), vehicle: saline 98 % of control | dose: 6.3 micrograms/kg/injection, schedule: Q01DX009 (ip), vehicle: Klucel (hydroxypropylcellulose) (HPC) 107 % of control | dose: 12.5 micrograms/kg/injection, schedule: Q01DX009 (ip), vehicle: Klucel (hydroxypropylcellulose) (HPC) 121 % of control | dose: 12.5 micrograms/kg/injection, schedule: Q01DX009 (ip), vehicle: saline 97 % of control | dose: 25.0 micrograms/kg/injection, schedule: Q01DX009 (ip), vehicle: saline 106 % of control | dose: 50.0 micrograms/kg/injection, schedule: Q01DX009 (ip), vehicle: Klucel (hydroxypropylcellulose) (HPC) 91 % of control | dose: 50.0 micrograms/kg/injection, schedule: Q01DX009 (ip), vehicle: saline 102 % of control

O=C(O)C1CC2C3CC(C(=O)O)C(C3)C2C1 (stereo unspecified)
inactive: dose: 100.0 mg/kg/injection, schedule: Q04DX003 (ip), vehicle: saline 108 % of control | dose: 200.0 mg/kg/injection, schedule: Q04DX003 (ip), vehicle: saline 104 % of control | dose: 400.0 mg/kg/injection, schedule: Q04DX003 (ip), vehicle: saline 105 % of control

CC(O)C(O)C=O (stereo unspecified)
inactive: dose: 248.0 mg/kg/injection, schedule: Q01DX009 (ip), vehicle: saline 108 % of control | dose: 346.0 mg/kg/injection, schedule: Q01DX009 (ip), vehicle: saline 97 % of control | dose: 576.0 mg/kg/injection, schedule: Q01DX009 (ip), vehicle: saline 104 % of control

C=CCCCC[P+](c1ccccc1)(c1ccccc1)c1ccccc1
inactive: dose: 1.5 mg/kg/injection, schedule: Q01DX009 (ip), vehicle: saline 102 % of control | dose: 3.0 mg/kg/injection, schedule: Q01DX009 (ip), vehicle: saline 92 % of control

c1cc[c]([Sn]([S][Sn]([c]2ccccc2)([c]2ccccc2)[c]2ccccc2)([c]2ccccc2)[c]2ccccc2)cc1
inactive: [4] 99 % of control | [5] 93 % of control | [6] 92 % of control | [7] 86 % of control

NC(Cc1cc(I)c(O)c(I)c1)C(=O)O (stereo unspecified)
inactive: dose: 25.0 mg/kg/injection, schedule: Q01DX009 (ip), vehicle: saline 106 % of control | dose: 50.0 mg/kg/injection, schedule: Q01DX009 (ip), vehicle: saline 112 % of control | dose: 100.0 mg/kg/injection, schedule: Q01DX009 (ip), vehicle: carboxymethylcellulose (CMC) 108 % of control | dose: 100.0 mg/kg/injection, schedule: Q01DX009 (ip), vehicle: saline 116 % of control | dose: 200.0 mg/kg/injection, schedule: Q01DX009 (ip), vehicle: carboxymethylcellulose (CMC) 115 % of control | dose: 200.0 mg/kg/injection, schedule: Q01DX009 (ip), vehicle: saline 110 % of control | dose: 400.0 mg/kg/injection, schedule: Q01DX009 (ip), vehicle: saline 100 % of control

CCC(=O)Nc1cccc(Cl)c1
inactive: dose: 75.0 mg/kg/injection, schedule: Q04DX003 (ip), vehicle: saline with Tween-80 110 % of control | dose: 150.0 mg/kg/injection, schedule: Q04DX003 (ip), vehicle: saline with Tween-80 97 % of control | dose: 300.0 mg/kg/injection, schedule: Q04DX003 (ip), vehicle: saline with Tween-80 100 % of control

CC(C)=CC(=O)CC(O)(C(F)(F)F)C(F)(F)Cl (stereo unspecified)
inactive: [8] 97 % of control | dose: 6.25 mg/kg/injection, schedule: Q04DX003 (ip), vehicle: saline 100 % of control | [2] 90 % of control | dose: 12.5 mg/kg/injection, schedule: Q04DX003 (ip), vehicle: saline 89 % of control | [3] 92 % of control | dose: 25.0 mg/kg/injection, schedule: Q04DX003 (ip), vehicle: saline 89 % of control

[Cl][Pt+2][Cl].[NH-]CC1(C[NH-])CCC1
active: dose: 1.2 mg/kg/injection, schedule: Q01DX009 (ip), vehicle: carboxymethylcellulose (CMC) 159 % of control | dose: 2.4 mg/kg/injection, schedule: Q01DX009 (ip), vehicle: carboxymethylcellulose (CMC) 168 % of control | dose: 3.6 mg/kg/injection, schedule: Q01DX009 (ip), vehicle: carboxymethylcellulose (CMC) 169 % of control

ClC(Cl)(Cl)c1nc2nccnc2[nH]1
inactive: dose: 3.13 mg/kg/injection, schedule: Q01DX009 (ip), vehicle: saline with Tween-80 102 % of control | [8] 94 % of control | [2] 105 % of control | [3] 91 % of control

CCSC(=O)N1c2ccc(OC)cc2C=CC1C#N (stereo unspecified)
inactive: [5] 121 % of control

O=CC1CO1 (stereo unspecified)
inactive: dose: 12.5 mg/kg/injection, schedule: Q01DX009 (ip), vehicle: saline sonified 90 % of control | dose: 25.0 mg/kg/injection, schedule: Q01DX009 (ip), vehicle: saline sonified 90 % of control | dose: 50.0 mg/kg/injection, schedule: Q01DX009 (ip), vehicle: saline sonified 97 % of control

O=C(O)C(O)C(O)C(O)C(O)C(=O)O (stereo unspecified)
inactive: dose: 300.0 mg/kg/injection, schedule: Q01DX009 (ip), vehicle: Klucel (hydroxypropylcellulose) (HPC) 100 % of control | dose: 600.0 mg/kg/injection, schedule: Q01DX009 (ip), vehicle: Klucel (hydroxypropylcellulose) (HPC) 93 % of control | dose: 900.0 mg/kg/injection, schedule: Q01DX009 (ip), vehicle: Klucel (hydroxypropylcellulose) (HPC) 91 % of control

CNC(=O)c1cccc2c(Nc3ccc(NS(C)(=O)=O)cc3OC)c3cccc(C)c3nc12
active: dose: 1.5 mg/kg/injection, schedule: Q01DX009 (ip), vehicle: water 162 % of control | dose: 3.0 mg/kg/injection, schedule: Q01DX009 (ip), vehicle: water 201 % of control

C/C(=N/N=C(N)N)c1ccc(NC(=O)Nc2ccc(/C(C)=N/N=C(N)N)cc2)cc1
inactive: dose: 25.0 mg/kg/injection, schedule: Q01DX009 (ip), vehicle: Klucel (hydroxypropylcellulose) (HPC) 99 % of control | dose: 50.0 mg/kg/injection, schedule: Q01DX009 (ip), vehicle: Klucel (hydroxypropylcellulose) (HPC) 121 % of control | [1] 120 % of control

CC(C)(C)OC(=O)NC(N)=NCCCC(NC(=O)OC(C)(C)C)C(=O)O (stereo unspecified)
inactive: [4] 101 % of control | [5] 88 % of control | [6] 87 % of control

CN=S(=O)(OCCCCCOS(=O)(=NC)c1ccc(C)cc1)c1ccc(C)cc1 (stereo unspecified)
inactive: [8] 101 % of control | [2] 103 % of control | [3] 99 % of control | [4] 102 % of control | [5] 101 % of control | [6] 106 % of control

C=C1N(C)c2ccccc2C1(C)C
inactive: dose: 1.0 mg/kg/injection, schedule: Q01DX009 (ip), vehicle: saline with Tween-80 104 % of control | dose: 2.0 mg/kg/injection, schedule: Q01DX009 (ip), vehicle: saline with Tween-80 100 % of control | dose: 4.0 mg/kg/injection, schedule: Q01DX009 (ip), vehicle: saline with Tween-80 98 % of control | dose: 13.0 mg/kg/injection, schedule: Q01DX009 (ip), vehicle: saline with Tween-80 117 % of control | dose: 19.0 mg/kg/injection, schedule: Q01DX009 (ip), vehicle: saline with Tween-80 98 % of control | dose: 29.0 mg/kg/injection, schedule: Q01DX009 (ip), vehicle: saline with Tween-80 104 % of control | dose: 45.0 mg/kg/injection, schedule: Q01DX009 (ip), vehicle: saline with Tween-80 98 % of control

CCO/C=C1\SC(=S)N(c2ccc(OCC)cc2)C1=O
inactive: [1] 92 % of control
